Test results as given in PubChem BioAssay (NCI).
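Grown in 96-well plates, cells were treated for 48 hours with each compound at five concentrations. Insufficient inhibition: endpoint recorded as highest concentration tested. At the GI50, growth is halved. Definition used: TGI = concentration required for complete inhibition of growth.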

Tests used:
Experiment in all cases: DTP human tumour cell line panel, 48 h
[1] = test system: SF-539 CNS
[2] = test system: IGROV1 ovarian
[3] = test system: OVCAR-3 ovarian
[4] = test system: OVCAR-4 ovarian
[5] = test system: HOP-92 NSCLC
[6] = test system: SK-MEL-28 melanoma
[7] = test system: MDA-MB-231 breast
[8] = test system: T-47D breast
[9] = test system: NCI-H460 lung
[10] = test system: HCT-15 colon
[11] = test system: K-562 leukemia
[12] = test system: SNB-19 CNS
[13] = test system: M14 melanoma
[14] = test system: KM12 colon
[15] = test system: OVCAR-8 ovarian
[16] = test system: SF-295 CNS
[17] = test system: HL-60(TB) leukemia
[18] = test system: NCI-H522 lung
[19] = test system: SR leukemia
[20] = test system: HS 578T breast
[21] = test system: NCI-H23 lung
[22] = test system: MCF7 breast
[23] = test system: DU-145 prostate
[24] = test system: SN12C renal
[25] = test system: HOP-62 NSCLC
[26] = test system: UO-31 renal
[27] = test system: COLO 205 colon
[28] = test system: ACHN renal
[29] = test system: NCI/ADR-RES ovarian
[30] = test system: UACC-257 melanoma
[31] = test system: MALME-3M melanoma
[32] = test system: U251 CNS
[33] = test system: SK-MEL-2 melanoma
[34] = test system: MDA-MB-435
[35] = test system: RXF 393 renal
[36] = test system: RPMI-8226 leukemia
[37] = test system: OVCAR-5 ovarian
[38] = test system: SK-MEL-5 melanoma
[39] = test system: NCI-H226 lung
[40] = test system: HT29 colon
[41] = test system: SW-620 colon
[42] = test system: SF-268 CNS
[43] = test system: CAKI-1 renal
[44] = test system: MOLT-4 leukemia
[45] = test system: LOX IMVI melanoma
[46] = test system: HCT-116 colon
[47] = test system: A498 renal
[48] = test system: PC-3 prostate
[49] = test system: SNB-75 CNS
[50] = test system: HCC-2998 colon
[51] = test system: A549 NSCLC
[52] = test system: EKVX NSCLC
[53] = test system: UACC-62 melanoma
[54] = test system: TK-10 renal
[55] = test system: CCRF-CEM leukemia

## O=C(C[Si](CC(=O)c1cccc(C(F)(F)F)c1)CC(=O)c1cccc(C(F)(F)F)c1)c1cccc(C(F)(F)F)c1
[1]
  GI50: 1.85 µM
  TGI: 3.85 µM
[2]
  GI50: 6.24 µM
  TGI: 27.8 µM
[3]
  GI50: 3.32 µM
  TGI: 10.5 µM
[4]
  GI50: 3.12 µM
  TGI: 12.1 µM
[5]
  GI50: 2.15 µM
  TGI: 6.43 µM
[6]
  GI50: 3.51 µM
  TGI: 13.6 µM
[7]
  GI50: 2.3 µM
  TGI: 4.73 µM
[8]
  GI50: 4.48 µM
  TGI: 13.9 µM
[9]
  GI50: 3.18 µM
  TGI: 10.4 µM
[10]
  GI50: 2.06 µM
  TGI: 6.25 µM
[11]
  GI50: 3.57 µM
  TGI: 13.4 µM
[12]
  GI50: 3.88 µM
  TGI: 13.4 µM
[13]
  GI50: 3.16 µM
  TGI: 10.1 µM
[14]
  GI50: 3.25 µM
  TGI: 10.1 µM
[15]
  GI50: 3.48 µM
  TGI: 10.9 µM
[16]
  GI50: 2.88 µM
  TGI: 11.2 µM
[17]
  GI50: 2.52 µM
  TGI: 5.99 µM
[18]
  GI50: 2.6 µM
  TGI: 9.01 µM
[19]
  GI50: 2.72 µM
  TGI: 7.19 µM
[20]
  GI50: 4.51 µM
  TGI: 25.9 µM
[21]
  GI50: 3.27 µM
  TGI: 15.6 µM
[22]
  GI50: 3.05 µM
  TGI: 11.5 µM
[23]
  GI50: 4.43 µM
  TGI: 14.8 µM
[24]
  GI50: 3.03 µM
  TGI: 10.1 µM
[25]
  GI50: 3.44 µM
  TGI: 12 µM
[26]
  GI50: 3.2 µM
  TGI: 14.2 µM
[27]
  GI50: 1.67 µM
  TGI: 3.07 µM
[28]
  GI50: 2 µM
  TGI: 4.94 µM
[29]
  GI50: 3.75 µM
  TGI: 15.4 µM
[30]
  GI50: 2.65 µM
  TGI: 6.38 µM
[31]
  GI50: 4.03 µM
  TGI: 17.4 µM
[32]
  GI50: 3.27 µM
  TGI: 10.4 µM
[33]
  GI50: 2.28 µM
  TGI: 5.29 µM
[34]
  GI50: 3.27 µM
  TGI: 10.4 µM
[35]
  GI50: 2.07 µM
  TGI: 4.3 µM
[36]
  GI50: 2.12 µM
  TGI: 5.71 µM
[37]
  GI50: 2.19 µM
  TGI: 6.51 µM
[38]
  GI50: 1.63 µM
  TGI: 3.03 µM
[39]
  GI50: 2.11 µM
  TGI: 5.3 µM
[40]
  GI50: 2.55 µM
  TGI: 12 µM
[41]
  GI50: 3.23 µM
  TGI: 13.3 µM
[42]
  GI50: 3.8 µM
  TGI: 13.9 µM
[43]
  GI50: 3.39 µM
  TGI: 12.9 µM
[44]
  GI50: 2.81 µM
  TGI: 8.24 µM
[45]
  GI50: 2.94 µM
  TGI: 11.4 µM
[46]
  GI50: 2.41 µM
  TGI: 8.87 µM
[47]
  GI50: 2.34 µM
  TGI: 9.62 µM
[48]
  GI50: 3.11 µM
  TGI: 11 µM
[49]
  GI50: 2.42 µM
  TGI: 8.81 µM
[50]
  GI50: 3.46 µM
  TGI: 15 µM
[51]
  GI50: 3.39 µM
  TGI: 11.3 µM
[52]
  GI50: 3.1 µM
  TGI: 11.5 µM
[53]
  GI50: 2.23 µM
  TGI: 6.28 µM
[54]
  GI50: 3.52 µM
  TGI: 14.1 µM
[55]
  GI50: 3.1 µM
  TGI: 10.6 µM
